Assay [1] deals with GDP-bound NRAS wild-type protein (Homo sapiens, UniProt P01111). The assay is described as follows: Binding to NRAS by surface plasmon resonance (SPR), Single Cycle Kinetics.
The target of assay [2] is GDP-bound HRAS wild-type protein (Homo sapiens, UniProt P01112). The assay is described as follows: Binding to HRAS by surface plasmon resonance (SPR), Single Cycle Kinetics. (In general: In SPR one partner is held on a chip, and binding of the other changes the refractive index at the surface.)
Sequence of GDP-bound HRAS wild-type protein (P01112 whole entry): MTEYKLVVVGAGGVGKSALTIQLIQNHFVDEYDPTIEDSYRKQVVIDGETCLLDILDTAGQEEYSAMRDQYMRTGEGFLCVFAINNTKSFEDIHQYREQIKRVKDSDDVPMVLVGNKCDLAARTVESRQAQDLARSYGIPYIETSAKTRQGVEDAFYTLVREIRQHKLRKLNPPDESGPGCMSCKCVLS
Setting [3] is: KD ratio, GDP-bound NRAS wild-type vs GDP-bound KRAS wild-type, SPR.
[4] abbreviates: KD ratio, GDP-bound HRAS wild-type vs GDP-bound KRAS wild-type, SPR.
[5] abbreviates: SPR, GDP-bound wild-type proteins.
Setting [6] is: SPR, GDP-bound NRAS wild-type vs GDP-bound KRAS wild-type.
Setting [7] is: SPR, GDP-bound HRAS wild-type vs GDP-bound KRAS wild-type.

Where a SMILES comes first, the peptide text is derived from it. Bridges are numbered along the chain shown (N, C = ends). [ ]: non-standard residue; d: D form. The star is where a group is joined. hPhe(3-Cl-4-CF3) = N[C@@H](CCc1ccc(C(F)(F)F)c(Cl)c1)C(=O)O; NPrPhe(4-CF3) = CCCN[C@@H](Cc1ccc(C(F)(F)F)cc1)C(=O)O; NMeGly(cPent) = CN[C@H](C(=O)O)C1CCCC1; Pro(4S-Me) = C[C@@H]1CN[C@H](C(=O)O)C1; NMeD = CN[C@@H](CC(=O)O)C(=O)O; NMeL = CN[C@@H](CC(C)C)C(=O)O; Morpholide = C1CN(*)CCO1; Ac5c = NC1(C(=O)O)CCCC1; Aze = O=C(O)[C@@H]1CCN1; Sar = CNCC(=O)O

Sequence of GDP-bound NRAS wild-type protein (P01111 whole entry): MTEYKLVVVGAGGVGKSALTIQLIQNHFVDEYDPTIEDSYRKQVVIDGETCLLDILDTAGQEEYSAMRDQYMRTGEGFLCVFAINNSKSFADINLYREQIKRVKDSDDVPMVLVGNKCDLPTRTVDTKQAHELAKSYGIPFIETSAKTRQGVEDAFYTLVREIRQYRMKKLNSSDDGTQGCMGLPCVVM

Turning to `CCCN1C(=O)CN(C)C(=O)[C@@H]2CCN2C(=O)[C@H]([C@@H](C)CC)NC(=O)[C@H](CC(C)C)N(C)C(=O)C[C@@H](C(=O)N2CCOCC2)N(C)C(=O)[C@H](C2CCCC2)N(C)C(=O)C2(CCCC2)NC(=O)[C@@H]2C[C@H](C)CN2C(=O)[C@H](CCc2ccc(C(F)(F)F)c(Cl)c2)NC(=O)CN(C)C(=O)[C@@H]1Cc1ccc(C(F)(F)F)cc1` [PP0453] ([NMeL]I[Aze][Sar][NPrPhe(4-CF3)][Sar][hPhe(3-Cl-4-CF3)][Pro(4S-Me)][Ac5c][NMeGly(cPent)][NMeD]-Morpholide; lactam N-11), the “NRAS/KRAS (ratio of KD value with respect to GDP-bound NRAS wild-type protein to KD value with respect to KRAS)” value in assay [1] (SPR) is “B (a compound having 3 or more and less than 10 is denoted as B)”. The “HRAS/KRAS (ratio of KD value with respect to GDP-bound HRAS wild-type protein to KD value with respect to KRAS)” value in assay [2] (SPR) is “C (A compound having a KD ratio of 0.1 or more and less than 3 is denoted as C)”.

Regarding `CCO[C@@H]1C[C@H]2C(=O)NC3(CCC3)C(=O)N(C)[C@@H](C3CCCC3)C(=O)N(C)[C@H](C(=O)N3CCOCC3)CC(=O)N(C)[C@@H](CC(F)F)C(=O)N[C@@H]([C@@H](C)CC)C(=O)N(C)CC(=O)N(C)[C@H]3CCCCCN(C3=O)[C@@H](Cc3ccc(F)cc3)C(=O)N(C)CC(=O)N[C@@H](CCc3cc(F)c(C(F)(F)F)c(F)c3)C(=O)N2C1` [PP1177], the “NRAS/KRAS (ratio of KD value with respect to NRAS to KD value with respect to KRAS)” value in assay [1] (setting [3]) was “B (a compound having 3 or more and less than 10 is denoted as B)”. Moreover, the “HRAS/KRAS (ratio of KD value with respect to HRAS to KD value with respect to KRAS)” value in assay [2] (setting [4]) is “B (a compound having 3 or more and less than 10 is denoted as B)”.

`CC[C@H](C)[C@@H]1NC(=O)[C@H](CC(F)(F)F)N(C)C(=O)C[C@@H](C(=O)N(C)C)N(C)C(=O)[C@H](C2CCCC2)N(C)C(=O)C2(CC(C)(C)C2)NC(=O)[C@@H]2C[C@@H](F)CN2C(=O)[C@H](CCc2cc(F)c(C(F)(F)F)c(F)c2)NC(=O)CN(C)C(=O)[C@H](Cc2ccc(C(F)(F)F)cc2)N2CC/C=C\C[C@@H](C2=O)N(C)C(=O)CN(C)C1=O` [PP1688]: the “NRAS/KRAS (ratio of KD value for NRAS to KD value for KRAS)” value in assay [1] (setting [3]) was “A (a compound having 10 or more and less than 20 is denoted as A)”. The “HRAS/KRAS (ratio of KD value for HRAS to KD value for KRAS)” value in assay [2] (setting [4]) is “A (a compound having 10 or more and less than 20 is denoted as A)”.

In the case of `CCC[C@H]1C(=O)N[C@@H]([C@@H](C)CC)C(=O)N(C)CC(=O)N(C)[C@H]2C/C=C\CCN(C2=O)[C@@H](Cc2ccc(C)cc2)C(=O)N(C)CC(=O)N[C@@H](CCc2ccc(Cl)c(C(F)(F)F)c2)C(=O)N2C[C@H](OCC)C[C@H]2C(=O)NC2(CC(C)(C)C2)C(=O)N(C)[C@@H](C(CC)CC)C(=O)N(C)[C@H](C(=O)N(C)C)CC(=O)N1C` [PP2787], the “NRAS/KRAS (ratio of KD value with respect to GDP-bound NRAS wild-type protein to KD value with respect to KRAS)” value in assay [1] (class symbols) is “AA (a compound having 20 or more is denoted as AA)”. Besides, in assay [2] (class symbols), the “HRAS/KRAS (ratio of KD value with respect to GDP-bound HRAS wild-type protein to KD value with respect to KRAS)” value is “A (a compound having 10 or more and less than 20 is denoted as A)”.

Take `CC[C@H](C)[C@@H]1NC(=O)[C@@H]2CCCCc3ccc(cc3)C[C@@H](C(=O)N(C)CC(=O)N[C@@H](CCc3ccc(C(F)(F)F)c(OC)c3)C(=O)N3C[C@H](OC4CCC4)C[C@H]3C(=O)NC3(CC(C)(C)C3)C(=O)N(C)[C@@H](C3CCCC3)C(=O)N(C)[C@H](C(=O)N(C)CC)CC(=O)N2C)N2CC/C=C\C[C@@H](C2=O)N(C)C(=O)CN(C)C1=O` [PP3079]: the “NRAS/KRAS (ratio of KD value with respect to GDP-bound NRAS wild-type protein to KD value with respect to KRAS)” value in assay [1] (setting [5]) is “A (a compound having 10 or more and less than 20 is denoted as A)”. Further, the “HRAS/KRAS (ratio of KD value with respect to GDP-bound HRAS wild-type protein to KD value with respect to KRAS)” value in assay [2] (setting [5]) is “B (a compound having 3 or more and less than 10 is denoted as B)”.

As for `CCO[C@@H]1C[C@H]2C(=O)NC3(CC(C)(C)C3)C(=O)N(C)[C@@H](C3CCCC3)C(=O)N(C)[C@H](C(=O)N(C)CC)CC(=O)N(C)[C@@H](C3CCC3)C(=O)N[C@@H]([C@@H](C)CC)C(=O)N(C)CC(=O)N(C)[C@H]3C/C=C\CCN(C3=O)[C@@H](Cc3ccc(C(F)(F)F)cc3)C(=O)N(C)CC(=O)N[C@@H](CCc3cc(F)c(C(F)(F)F)c(F)c3)C(=O)N2C1` [PP2038], in assay [1] (setting [6]), the “NRAS/KRAS (ratio of KD value with respect to NRAS to KD value with respect to KRAS)” value is “A (a compound having 10 or more and less than 20 is denoted as A)”. In addition, the “HRAS/KRAS (ratio of KD value with respect to HRAS to KD value with respect to KRAS)” value in assay [2] (setting [7]) is “A (a compound having 10 or more and less than 20 is denoted as A)”.

`CCO[C@@H]1C[C@H]2C(=O)NC3(CC(C)(C)C3)C(=O)N(C)[C@@H](C(CC)CC)C(=O)N(C)[C@H](C(=O)N(C)C)CC(=O)N(C)[C@@H](COC)C(=O)N[C@@H]([C@@H](C)CC)C(=O)N(C)CC(=O)N(C)[C@H]3C/C=C\CCN(C3=O)[C@@H](Cc3ccc(C(F)(F)F)cc3)C(=O)N(C)CC(=O)N[C@@H](CCc3ccc(C(F)(F)F)c(Cl)c3)C(=O)N2C1` [PP2126]: the “NRAS/KRAS (ratio of KD value with respect to NRAS to KD value with respect to KRAS)” value in assay [1] (setting [6]) was “A (a compound having 10 or more and less than 20 is denoted as A)”. Moreover, the “HRAS/KRAS (ratio of KD value with respect to HRAS to KD value with respect to KRAS)” value in assay [2] (setting [7]) was “B (a compound having 3 or more and less than 10 is denoted as B)”.

The values above are taken from US20250230193A1, “CYCLIC COMPOUND HAVING SELECTIVE KRAS INHIBITORY EFFECT ON HRAS AND NRAS” (CHUGAI SEIYAKU KABUSHIKI KAISHA, priority 2022, published 2025).
